Laboratory results from US11780826B2 (Amgen Inc., priority 2017, dated 2023).

Test system: Bovine cardiac myofibrils
Assay: In vitro model of dose-dependent myofibril ATPase modulation (AC1.4, pyruvate kinase/lactate dehydrogenase-coupled ATPase assay at pCa25)
Type: biochemical
Details: concentration at which ATPase activity was 1.4-fold higher than the bottom of the dose curve, mean of a minimum of two independent tests
Summary of the method: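 Compound dilutions were premixed with myofibrils, coupling enzymes, EGTA and CaCl2, then the reaction was started with an equal volume carrying ATP (final 1 mM), NADH and PEP. ATP turnover was followed at 340 nm, and dose responses were fit to a four-parameter equation.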

| AC1.4 | SMILES |
| --- | --- |
| 0.7928 µM | CS(=O)(=O)c1cccc(C(=O)N2CCCC[C@@H]2C(=O)N[C@@H](c2ccc(C(F)(F)F)c(F)c2)C2CC2)c1 [Example 300, (2R)-N-((R)-cyclopropyl(3-fluoro-4-(trifluoromethyl)phenyl)methyl)-1-(3-(methylsulfonyl)benzoyl)-2-piperidinecarboxamide] |
| 7.912 µM | COC(=O)CNS(=O)(=O)c1cccc(C(=O)N2CCC[C@@H]2C(=O)NCc2ccc(C(F)(F)F)cc2)c1 [Example 764, methyl N-((3-(((2R)-2-((4-(trifluoromethyl)benzyl)carbamoyl)-1-pyrrolidinyl)carbonyl)phenyl)sulfonyl)glycinate] |
| 1.9915 µM | O=C(NCc1ccc(C(F)(F)F)cc1)[C@H]1CCCN1C(=O)[C@H]1CCCN(S(=O)(=O)N2CC(Nc3ccc(F)cc3)C2)C1 [Example 469, 1-(((3S)-1-((3-((4-fluorophenyl)amino)-1-azetidinyl)sulfonyl)-3-piperidinyl)carbonyl)-N-(4-(trifluoromethyl)benzyl)-D-prolinamide] |
| 5.525 µM | CN1CC(C(=O)N[C@@H](c2ccc(C(F)(F)F)cc2F)C2CC2)N(C(=O)c2cccc(S(C)(=O)=O)c2)C1=O (stereo partly drawn) [Example 696, N-((R)-cyclopropyl(2-fluoro-4-(trifluoromethyl)phenyl)methyl)-1-methyl-3-(3-(methylsulfonyl)benzoyl)-2-oxoimidazolidine-4-carboxamide] |
| 0.03155 µM | C[C@@H](NC(=O)[C@H]1CCCN1C(=O)[C@H]1CCCN(S(=O)(=O)N2CC(C#N)C2)C1)c1ccc(C(F)(F)F)cc1F [Example 29, 1-(((3S)-1-((3-cyano-1-azetidinyl)sulfonyl)-3-piperidinyl)carbonyl)-N-((1R)-1-(2-fluoro-4-(trifluoromethyl)phenyl)ethyl)-D-prolinamide] |
| 0.1762 µM | O=C(N[C@@H](c1cc(F)c(Cl)cc1F)C1CC1)[C@H]1C[C@H]2C[C@H]2N1C(=O)c1cccc(S(=O)(=O)CCO)c1 [Example 112, (1R,3R,5R)-N-((R)-(4-chloro-2,5-difluorophenyl)(cyclopropyl)methyl)-2-(3-((2-hydroxyethyl)sulfonyl)benzoyl)-2-azabicyclo[3.1.0]hexane-3-carboxamide] |
| 0.4808 µM | CS(=O)(=O)c1cc(F)cc(C(=O)N2[C@@H](C(=O)N[C@@H](c3ccc(C(F)(F)F)cc3F)C3COC3)C[C@H]3C[C@H]32)c1 [Example 219, (1R,3R,5R)-2-(3-fluoro-5-(methylsulfonyl)benzoyl)-N-((R)-(2-fluoro-4-(trifluoromethyl)phenyl)(3-oxetanyl)methyl)-2-azabicyclo[3.1.0]hexane-3-carboxamide] |
| 0.1046 µM | COC(=O)CS(=O)(=O)c1cccc(C(=O)N2[C@@H](C(=O)N[C@@H](c3cc(F)c(C(F)(F)F)cc3F)C3CC3)C[C@H]3C[C@H]32)c1 [Example 80, methyl((3-(((1R,3R,5R)-3-(((R)-cyclopropyl(2,5-difluoro-4-(trifluoromethyl)phenyl)methyl)carbamoyl)-2-azabicyclo[3.1.0]hexan-2-yl)carbonyl)phenyl)sulfonyl)acetate] |
| 2.66 µM | CS(=O)(=O)c1cncc(C(=O)N2[C@@H](C(=O)N[C@@H](c3ccc(C(F)(F)F)c(F)c3)C3CC3)C[C@H]3C[C@H]32)c1 [Example 548, (1R,3R,5R)-N-((R)-cyclopropyl(3-fluoro-4-(trifluoromethyl)phenyl)methyl)-2-((5-(methylsulfonyl)-3-pyridinyl)carbonyl)-2-azabicyclo[3.1.0]hexane-3-carboxamide] |
| 9.3793 µM | Cc1noc(C)c1C(=O)N1[C@@H](C(=O)N[C@@H](c2cc(F)c(C(F)(F)F)cc2F)C2COC2)C[C@H]2C[C@H]21 [Example 825, (1R,3R,5R)-N-((R)-(2,5-difluoro-4-(trifluoromethyl)phenyl)(oxetan-3-yl)methyl)-2-(3,5-dimethylisoxazole-4-carbonyl)-2-azabicyclo[3.1.0]hexane-3-carboxamide] |
